PubChem BioAssay AID330 (DTP/NCI, 2004)
Values joined by “and” are separate entries in the source; they are usually repeats but may differ in a detail not shown here. Equal values may be shown once. Toxic doses and inconclusive results are not listed.

Tested on: P388 leukemia ip, CD2F1 mice, survival T/C
Assay: NCI In Vivo Anticancer Drug Screen. Data for tumor model P388 Leukemia (intraperitoneal) in CD2F1 (CDF1) mice
Conditions: endpoint: median survival time, higher = longer survival
How it was run: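 Mice carrying the transplanted tumor received test compound or vehicle. Survival was recorded in each group, and the value is the treated-group measurement divided by that of the vehicle-treated control group.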

[1] = dose: 100.0 mg/kg/injection, schedule: Q04DX003 (ip), vehicle: saline with Tween-80
[2] = dose: 200.0 mg/kg/injection, schedule: Q04DX003 (ip), vehicle: saline with Tween-80
[3] = dose: 400.0 mg/kg/injection, schedule: Q04DX003 (ip), vehicle: saline with Tween-80

COc1ccc(/C(C#N)=C\c2ccnc3ccccc23)cc1
T/C (dose: 1.56 mg/kg/injection, schedule: Q01DX009 (ip), vehicle: distilled water + Tween-80): 103 % of control
T/C (dose: 3.13 mg/kg/injection, schedule: Q01DX009 (ip), vehicle: distilled water + Tween-80): 94 % of control
T/C (dose: 6.25 mg/kg/injection, schedule: Q01DX009 (ip), vehicle: distilled water + Tween-80): 93 % of control
T/C (dose: 12.5 mg/kg/injection, schedule: Q01DX009 (ip), vehicle: distilled water + Tween-80): 94 % of control
T/C (dose: 25.0 mg/kg/injection, schedule: Q01DX009 (ip), vehicle: distilled water + Tween-80): 91 % of control

C=CCN(CC=C)P(=O)(N1CC1)N1CC1C (configuration not stated)
T/C (dose: 0.6 mg/kg/injection, schedule: Q01DX009 (ip), vehicle: saline): 189 % of control
T/C (dose: 0.9 mg/kg/injection, schedule: Q01DX009 (ip), vehicle: saline): 174 % of control

CN1CC2CN(C)CC(C1)C2(O)c1ccccc1 (configuration not stated)
T/C (dose: 12.5 mg/kg/injection, schedule: Q01DX009 (ip), vehicle: saline): 97 % of control
T/C (dose: 25.0 mg/kg/injection, schedule: Q01DX009 (ip), vehicle: saline): 98 % of control

CC[C@](O)(C(=O)O)c1cc2n(c(=O)c1CO)Cc1cc3ccccc3nc1-2
T/C (dose: 0.5 mg/kg/injection, schedule: Q01DX009 (ip), vehicle: saline with Tween-80): 118 % of control
T/C (dose: 0.5 mg/kg/injection, schedule: Q01DX009 (ip), vehicle: water): 120 % of control
T/C (dose: 1.57 mg/kg/injection, schedule: Q04DX003 (ip), vehicle: other): 116 % of control and 119 % of control
T/C (dose: 2.0 mg/kg/injection, schedule: Q01DX009 (ip), vehicle: saline sonified): 163 % of control
T/C (dose: 2.0 mg/kg/injection, schedule: Q01DX009 (ip), vehicle: saline with Tween-80): 159 % of control
T/C (dose: 2.0 mg/kg/injection, schedule: Q01DX009 (ip), vehicle: water): 158 % of control
T/C (dose: 2.5 mg/kg/injection, schedule: Q04DX003 (ip), vehicle: water): 120 % of control
T/C (dose: 4.0 mg/kg/injection, schedule: Q01DX009 (ip), vehicle: saline sonified): 100 % of control
T/C (dose: 4.0 mg/kg/injection, schedule: Q01DX009 (ip), vehicle: saline with Tween-80): 195 % of control
T/C (dose: 4.0 mg/kg/injection, schedule: Q01DX009 (ip), vehicle: water): 207 % of control
T/C (dose: 5.0 mg/kg/injection, schedule: Q04DX003 (ip), vehicle: water): 111 % of control
T/C (dose: 6.25 mg/kg/injection, schedule: Q04DX003 (ip), vehicle: other): 156 % of control and 159 % of control
T/C (dose: 6.25 mg/kg/injection, schedule: Q04DX003 (ip), vehicle: water): 154 % of control
T/C (dose: 8.0 mg/kg/injection, schedule: Q01DX009 (ip), vehicle: water): 100 % of control
T/C (dose: 9.72 mg/kg/injection, schedule: Q04DX002 (ip), vehicle: saline): 108 % of control
T/C (dose: 10.0 mg/kg/injection, schedule: Q04DX003 (ip), vehicle: water): 155 % of control
T/C (dose: 10.8 mg/kg/injection, schedule: Q04DX002 (ip), vehicle: saline): 160 % of control
T/C (dose: 12.5 mg/kg/injection, schedule: Q04DX003 (ip), vehicle: other): 106 % of control and 113 % of control
T/C (dose: 13.0 mg/kg/injection, schedule: Q04DX003 (ip), vehicle: saline): 185 % of control
T/C (dose: 18.0 mg/kg/injection, schedule: Q04DX002 (ip), vehicle: saline): 159 % of control
T/C (dose: 20.0 mg/kg/injection, schedule: Q04DX003 (ip), vehicle: water): 178 % of control and 220 % of control
T/C (dose: 21.6 mg/kg/injection, schedule: Q04DX003 (ip), vehicle: saline): 217 % of control
T/C (dose: 25.0 mg/kg/injection, schedule: Q04DX003 (ip), vehicle: other): 98 % of control and 90 % of control
T/C (dose: 25.0 mg/kg/injection, schedule: Q04DX003 (ip), vehicle: water): 154 % of control
T/C (dose: 30.0 mg/kg/injection, schedule: Q04DX002 (ip), vehicle: saline): 177 % of control
T/C (dose: 36.0 mg/kg/injection, schedule: Q04DX003 (ip), vehicle: saline): 233 % of control
T/C (dose: 40.0 mg/kg/injection, schedule: Q04DX003 (ip), vehicle: water): 212 % of control and 94 % of control
T/C (dose: 45.0 mg/kg/injection, schedule: Q04DX002 (ip), vehicle: saline): 157 % of control and 196 % of control
T/C (dose: 50.0 mg/kg/injection, schedule: Q04DX002 (ip), vehicle: saline): 183 % of control
T/C (dose: 60.0 mg/kg/injection, schedule: Q04DX003 (ip), vehicle: saline): 93 % of control
T/C (dose: 83.3 mg/kg/injection, schedule: Q04DX002 (ip), vehicle: saline): 91 % of control
T/C (dose: 128.0 mg/kg/injection, schedule: Q04DX003 (ip), vehicle: saline): 58 % of control

O=C(NCC(CC(NC(=O)c1ccccc1)C(=O)O)NC(=O)c1ccccc1)c1ccccc1 (configuration not stated)
T/C (dose: 12.5 mg/kg/injection, schedule: Q01DX009 (ip), vehicle: Klucel (hydroxypropylcellulose) (HPC)): 89 % of control
T/C (dose: 25.0 mg/kg/injection, schedule: Q01DX009 (ip), vehicle: Klucel (hydroxypropylcellulose) (HPC)): 91 % of control
T/C (dose: 50.0 mg/kg/injection, schedule: Q01DX009 (ip), vehicle: Klucel (hydroxypropylcellulose) (HPC)): 93 % of control
T/C (dose: 100.0 mg/kg/injection, schedule: Q01DX009 (ip), vehicle: Klucel (hydroxypropylcellulose) (HPC)): 89 % of control
T/C (dose: 200.0 mg/kg/injection, schedule: Q01DX009 (ip), vehicle: Klucel (hydroxypropylcellulose) (HPC)): 90 % of control

OCC1OC(/C(N=Nc2ccccc2)=N\Nc2ccccc2)C(O)C1O (configuration not stated)
T/C (dose: 6.25 mg/kg/injection, schedule: Q01DX005 (ip), vehicle: saline with Tween-80): 99 % of control
T/C (dose: 12.5 mg/kg/injection, schedule: Q01DX005 (ip), vehicle: saline with Tween-80): 89 % of control
T/C (dose: 200.0 mg/kg/injection, schedule: Q01DX005 (ip), vehicle: saline with Tween-80): 97 % of control

CC1=C(O)COc2cc(C)ccc21
T/C (dose: 100.0 mg/kg/injection, schedule: Q01DX001 (ip), vehicle: saline): 102 % of control
T/C (dose: 200.0 mg/kg/injection, schedule: Q01DX001 (ip), vehicle: saline): 100 % of control
T/C (dose: 400.0 mg/kg/injection, schedule: Q01DX001 (ip), vehicle: saline): 100 % of control

CCCN(CCC)C(=O)O[Si](C)(C)C(C)(C)C
T/C (dose: 50.0 mg/kg/injection, schedule: Q01DX009 (ip), vehicle: saline with Tween-80): 105 % of control
T/C (dose: 100.0 mg/kg/injection, schedule: Q01DX009 (ip), vehicle: saline with Tween-80): 97 % of control
T/C (dose: 200.0 mg/kg/injection, schedule: Q01DX009 (ip), vehicle: saline with Tween-80): 105 % of control

CC(C)c1ccc(OC(=N)c2ccccc2)cc1
T/C [1]: 98 % of control
T/C [2]: 100 % of control
T/C [3]: 89 % of control

CC1CC(C)CC(C)C(O)/C(C#N)=C/C=C/CC(C2CCCC2C(=O)O)OC(=O)CC(O)C(C)C1 (configuration not stated)
T/C (dose: 0.5 mg/kg/injection, schedule: Q01DX009 (ip), vehicle: Klucel (hydroxypropylcellulose) (HPC)): 163 % of control and 169 % of control
T/C (dose: 0.78 mg/kg/injection, schedule: Q01DX009 (ip), vehicle: Klucel (hydroxypropylcellulose) (HPC)): 150 % of control
T/C (dose: 1.0 mg/kg/injection, schedule: Q01DX009 (ip), vehicle: Klucel (hydroxypropylcellulose) (HPC)): 151 % of control and 152 % of control
T/C (dose: 1.56 mg/kg/injection, schedule: Q01DX009 (ip), vehicle: Klucel (hydroxypropylcellulose) (HPC)): 151 % of control
T/C (dose: 3.13 mg/kg/injection, schedule: Q01DX009 (ip), vehicle: Klucel (hydroxypropylcellulose) (HPC)): 153 % of control

C[Se]C(C)(C)C(O)(Cc1ccccc1)c1ccccc1 (configuration not stated)
T/C (dose: 25.0 mg/kg/injection, schedule: Q04DX002 (ip), vehicle: saline with Tween-80): 88 % of control
T/C (dose: 50.0 mg/kg/injection, schedule: Q04DX002 (ip), vehicle: saline with Tween-80): 94 % of control
T/C (dose: 100.0 mg/kg/injection, schedule: Q04DX002 (ip), vehicle: saline with Tween-80): 101 % of control

CCOP(=O)(N(CCCl)CCCl)N1CCc2ccccc2C1 (configuration not stated)
T/C (dose: 12.5 mg/kg/injection, schedule: Q04DX003 (ip), vehicle: saline with Tween-80): 103 % of control
T/C (dose: 25.0 mg/kg/injection, schedule: Q04DX003 (ip), vehicle: saline with Tween-80): 98 % of control
T/C (dose: 50.0 mg/kg/injection, schedule: Q04DX003 (ip), vehicle: saline with Tween-80): 103 % of control
T/C [1]: 110 % of control
T/C [2]: 112 % of control
T/C [3]: 119 % of control
